Data on 1 compound can be found in patent US20020028258A1, “Immunostimulant compositions and associated methods” (Pharmanex, LLC, priority 2000, published 2002).

Common to all, as to type: cell-based, human
Holding throughout (conditions): 50 ng/ml

Assay [1] has as its system CD4+ immune cells. The experiment in a line: Immune Cell Stimulation Assay Method (CD69 expression, flow cytometry), CD4+. The method, then:
(§1) Each immunostimulation assay uses a Becton Dickinson FACScan flow cytometer to quantify immune cell activity. The specific protocol for measuring such activity utilizes freshly drawn human blood collected in sodium heparin to 200 μL. Echinacea extract is added in a desired concentration after being mixed with 50 μL of phosphate buffer. The blood and Echinacea mixture is vortexed and incubated at 37° C. for 5 hours to allow adequate time for immune cell stimulation.
(§2) Positive controls consist of PMA (50 ng/ml), PHA ([…]), or CD2/CD2R (5 μL/250 μL) and negative controls consist of DMSO (2% in RPMI), RPMI, and cyclosporin A (10 μg/ml). For staining, 20 μL of reagent cocktail (CD4FITC/CD69PE/CD3PerCP (expressed on the helper/inducer T-lymphocyte subset and is the primary receptor for HIV); CD8FITC/CD69PE/CD3PerCP (expressed on the human suppressor/cytotoxic T-lymphocytes and on a subset of natural killer lymphocytes); CD19FITC/CD69PE/CD45PerCP (expressed on B-lymphocytes); CD56FITC/CD69PE/CD45PerCP (expressed on NK lymphocytes), for examples) are used.
Following the cell stimulation period described above, solutions of fractions and constituents are compared quantitatively with the above-recited controls. Next 50 μL of the stimulated blood samples are added to each of the tubes containing the reagent cocktail, vortexed and incubated at room temperature for 30 min. in the dark. Then 450 μL of 1× FACS lysing solution is added to each tube which is vortexed gently and incubated in the dark at room temp. for 20 min. The prepared samples are analyzed in the flow cytometer. CD69 (CD stands for cluster determinant) is the first […] expressed by any of these cells following stimulation and is produced on the surface of T-, B- and NK-lymphocytes. […] Individual cell types are quantitated using appropriate stains and gating as known by those skilled in the art.
(In general: Flow cytometry measures light scatter and fluorescence of single cells or particles in a stream.)

Assay [2] deals with CD8+ immune cells. The experiment in a line: Immune Cell Stimulation Assay Method (CD69 expression, flow cytometry), CD8+. As for the experimental part: as §1, §2
(§3) Following the cell stimulation period described above, solutions of fractions and constituents are compared quantitatively with the above-recited controls. […] The prepared samples are analyzed in the flow cytometer. […] Individual cell types are quantitated using appropriate stains and gating as known by those skilled in the art.

The subject of assay [3] is CD19+ cells. The experiment in a line: Immune Cell Stimulation Assay Method (CD69 expression, flow cytometry), CD19+. The method, then: as §1, §2, §3
Assay [4] relates to CD56+ cells. The experiment in a line: Immune Cell Stimulation Assay Method (CD69 expression, flow cytometry), CD56+. As for the experimental part:
as §1, §2, §3

Structures are written as SMILES.

As for `CCCCCCCCCCCCCC(=O)O[C@@H]1[C@@H](C)[C@@]2(O)[C@@H](C=C(CO)C[C@]3(O)C(=O)C(C)=C[C@@H]23)[C@@H]2C(C)(C)[C@]12OC(C)=O` [PMA], the “CD4+ stimulation, positive control” value in assay [1] (Table 2) was 99.16%; in assay [1] (Table 3), 99.16%; in assay [1] (Table 4), 99.20%; in assay [1] (Table 7), 99.42%; in assay [1] (Table 8) it was 98.770%. The “CD8+ stimulation, positive control” value is 99.04% in assay [2] (Table 7) and 98.320% in assay [2] (Table 8). Moreover, the figures for the “CD19+ stimulation, positive control” value in assay [3] (Table 7) and in assay [3] (Table 8) were 97.68% and 98.820%, respectively. For the same compound, the entries for the “CD56+ stimulation, positive control” value in assay [4] (Table 7) and in assay [4] (Table 8) were 94.14% and 94.940%, respectively.
